# Laboratory results: paper PMC11638965, “Leveraging Dual-Ligase Recruitment to Enhance Protein Degradation via a Heterotrivalent Proteolysis Targeting Chimera” (Journal of the American Chemical Society, 2024)
# pEC50: −log10 of the molar value. Read-outs that look alike come from different tables or passages of the source.
# What was measured:
# RKO WT cells = assay: cells; format: cell-based, human
# Protocol: (§1) RKO WT, VHL KO, CRBN KO and CRBN/VHL dKO cells were cultured in Dulbecco’s modified Eagle’s medium supplemented with 10% FCS and 1% penicillin–streptomycin. RKO CRBN KO and VHL KO were generated previously.[45] RKO CRBN/VHL dKO cells were generated by transiently expressing pSpCas9(BB)-2A-GFP (PX458) (Addgene 48138) loaded with a short guide RNA (sgRNA) targeting VHL (Fwd: […], Rev: […]) in RKO CRBN KO cells. Clones were single cell seeded and checked for VHL and CRBN double deletion via Western blot or PCR on genomic DNA (gDNA).
# Cells were seeded in 96-well plates at a cell density of 3750 cells per well and treated for 3 days with DMSO or drug at ten √10 serial diluted concentrations. […] Cell viability was assessed using the CellTiter-Glo assay (CellTiter-Glo Luminescent Cell Viability Assay, Promega G7573) according to manufacturer instructions. Luminescence signal was measured on a Multilabel Plate Reader Platform Victor X3 model 2030 (PerkinElmer). Survival curves and EC50 values were determined using GraphPad Prism v.10.0.3 by fitting a nonlinear regression to the log10-transformed drug concentration and the relative viability after normalization of each data point to the mean luminescence of the lowest drug concentration.
# BRD4 = BRD4 (Homo sapiens, UniProt O60885); assay: Live cell kinetic HiBiT degradation assay, HiBiT-BRD4 HEK293 cells (parental, CRBN KO, VHL KO); format: cell-based; details: for fold drop in BRD4 degradation potency (Dmax 50) when CRBN recruitment was outcompeted by pomalidomide: 20 μM pomalidomide vs vehicle, HiBiT-BRD4 HEK293 cells; for pEC50: HiBiT-BRD4 CRISPR knock-in HEK293 cells, live cell kinetic degradation, 24 h, read-out: Dmax 50 BRD4
# Protocol: (§2) HEK293 HiBiT-BRD2 (LgBiT stable), HEK293 HiBiT-BRD3 (LgBiT stable), and HEK293 HiBiT-BRD4 (LgBiT stable) were created using CRISPR/Cas9 to insert at HiBiT tag at the N-terminal genomic loci of BRD2, BRD3, or BRD4 in a cell line stably expressing LgBiT protein as described previously.[23]
# (§3) For kinetic degradation experiments, HEK293 HiBiT-BRD2, 3, or 4 (LgBiT stable) cells and HEK293 HiBiT-BRD4 (LgBiT) CRBN KO and VHL KO cells were plated at 20,000 cells/well in DMEM +10% FBS in white 96-well tissue culture plates and allowed to adhere overnight. The next day, media was removed and 90 μL of prewarmed CO2-independent medium (Gibco) containing Endurazine (Promega) at a 1:100 dilution from stock was added. Plates were incubated at 37 °C for 3 h to allow luminescence to equilibrate. A threefold dilution series of each PROTAC at 10x the desired final concentration was prepared (with the amount of DMSO in each treatment condition kept constant). After luminescence equilibration, a preread luminescence measurement was taken (prior to compound addition) to allow for baseline normalization to account for possible plating differences. Cells were then treated with 10 μL of the prepared PROTAC dilution series (in triplicate or quadruplicate). Treated plates were placed in a GloMax Discover luminometer (Promega) prewarmed to 37 °C and luminescence measurements were obtained every 7 min for 24 h. Kinetic degradation plots were obtained by first normalizing time course luminescence readings in each well to the preread measurement, then to the average value of the DMSO only control at each time point. Data was analyzed using GraphPad Prism (version 8) and excel. Dmax values were identified as the lowest luminescence reading in each well. Rate constant values were calculated using a one phase exponential decay Y = (Y0-Plateau) e(K*^X) + Plateau using Prism (Y0 constrained to 1). Dmax 50 values were calculated by plotting Dmax as a function of concentration, then fitting plots using the following equation: [drawing 1] to determine IC50.
# HiBiT-BRD4 (LgBiT stable) HEK293 cells (Promega) were used to generate both VHL KO HiBiT-BRD4 (LgBiT stable) and CRBN KO HiBiT-BRD4 (LgBiT stable) cell lines. For VHL, gRNAs targeting exon 1 ([…]) and exon 2 ([…]) and for CRBN, gRNAs targeting exon 3 ([…]) and exon 6 ([…]) were purchased from IDT DNA (Table 5). For each gRNA, tracrRNA/crRNA duplexes were formed by combining 10 μL of 100 μM Alt-R […] (IDT), 100 μM Alt-R crRNA (IDT) and heating at 95C for 5 min, then were allowed to cool to room temp for 20 min. RNPs were then formed by combining 75 pmol Cas9 (IDT) with 2.4 μL total of prepared tracrRNA/crRNA complex (1.2 μL for each gRNA targeting each exon). Cells were then trypsinized and resuspended at 10,000,000 cells/mL in 1 mL of Mirus Ingenio electroporation solution. Three μL of 100 μM electroporation enhancer (Mirus) was added, along with 3 μL of RNP solution. Cells were electroporated in 2 mm cuvettes using a BioRad system (190 V, 950 μF, infinite resistance) and were then plated in a T75 flask in full growth medium to allow for recovery. After recovery from electroporation, knockout pools were sorted for single cells in 96-well tissue culture treated plates. Clonal populations which expanded from single cells were then screened for loss of function of VHL by treating with MZ1, or loss of function of CRBN by treating with dBET6, using a HiBiT-BRD4 luminescent readout assay. Genomic DNA isolated from candidate clones was then PCR-amplified (Table of primers below), Gibson-assembled into a pF1A plasmid backbone, transformed into E. coli., and then Sanger sequenced to confirm presence of indels in the targeted exons. […] VHL exon 3 carried a 19 bp deletion on one allele, and a 1 bp insertion on the other allele, both occurring after the premature stop codon in exon 1.
# RKO VHL KO cells = assay: Cell viability assay (CellTiter-Glo); format: cell-based, human
# Protocol: as §1
# (§4) Cells were seeded in 96-well plates at a cell density of 3750 cells per well and treated for 3 days with DMSO or drug at ten √10 serial diluted concentrations. Starting concentration for all drugs was 10 μM, and each treatment was performed in biological triplicates. Cell viability was assessed using the CellTiter-Glo assay (CellTiter-Glo Luminescent Cell Viability Assay, Promega G7573) according to manufacturer instructions. Luminescence signal was measured on a Multilabel Plate Reader Platform Victor X3 model 2030 (PerkinElmer). Survival curves and EC50 values were determined using GraphPad Prism v.10.0.3 by fitting a nonlinear regression to the log10-transformed drug concentration and the relative viability after normalization of each data point to the mean luminescence of the lowest drug concentration.
# RKO CRBN/VHL dKO cells = assay: Cell viability assay (CellTiter-Glo); format: cell-based, human; details: read-out: EC50 RKO CRBN/VHL dKO
# Protocol: as §1, §4
# RKO CRBN KO cells = assay: Cell viability assay (CellTiter-Glo); format: cell-based, human
# Protocol: as §1, §4
# BRD3 = target: T1, BRD3 (Homo sapiens, UniProt Q15059); assay: Live cell kinetic HiBiT degradation assay, HiBiT-BRD3 HEK293 cells; format: cell-based; details: HiBiT-BRD3 CRISPR knock-in HEK293 cells, live cell kinetic degradation, 24 h; read-out: Dmax 50 BRD3
# T1 construct: HiBiT, is appended to the N-terminus of endogenous BRD2, BRD3, and BRD4; endogenous in cells
# Protocol: as §2, §3
# BRD2 = target: T2, BRD2 (Homo sapiens, UniProt P25440); assay: Live cell kinetic HiBiT degradation assay, HiBiT-BRD2 HEK293 cells; format: cell-based; details: HiBiT-BRD2 CRISPR knock-in HEK293 cells, live cell kinetic degradation, 24 h; read-out: Dmax 50 BRD2
# T2 construct: HiBiT, is appended to the N-terminus of endogenous BRD2, BRD3, and BRD4; endogenous in cells
# Protocol: as §2, §3
# K562 cells = assay: Cell viability assay (CellTiter-Glo); format: cell-based, human; details: WT K562, 5.12 pM to 10 uM, n = 3 (Table S4)
# Protocol: as §4, with “[…],” for “3750 cells per well and treated for 3 days with DMSO or drug at ten √10 serial diluted concentrations. Starting concentration for all drugs was 10 μM,”
# KBM7 cells = assay: Cell viability assay (CellTiter-Glo); format: cell-based, human; details: WT KBM7, 5.12 pM to 10 uM, n = 3 (Table S4)
# Protocol: as §4, with “[…],” for “3750 cells per well and treated for 3 days with DMSO or drug at ten √10 serial diluted concentrations. Starting concentration for all drugs was 10 μM,”
# [1] = Homo sapiens, 72 h, 316 pM to 10 μM, 3 days, n = 6 (Figure 3C, Table S1), read-out: EC50 RKO WT
# [2] = Homo sapiens, 72 h, 316 pM to 10 μM, 3 days, n = 6 (Figure 3C, Table S1)
# T2 sequence (P25440 whole entry): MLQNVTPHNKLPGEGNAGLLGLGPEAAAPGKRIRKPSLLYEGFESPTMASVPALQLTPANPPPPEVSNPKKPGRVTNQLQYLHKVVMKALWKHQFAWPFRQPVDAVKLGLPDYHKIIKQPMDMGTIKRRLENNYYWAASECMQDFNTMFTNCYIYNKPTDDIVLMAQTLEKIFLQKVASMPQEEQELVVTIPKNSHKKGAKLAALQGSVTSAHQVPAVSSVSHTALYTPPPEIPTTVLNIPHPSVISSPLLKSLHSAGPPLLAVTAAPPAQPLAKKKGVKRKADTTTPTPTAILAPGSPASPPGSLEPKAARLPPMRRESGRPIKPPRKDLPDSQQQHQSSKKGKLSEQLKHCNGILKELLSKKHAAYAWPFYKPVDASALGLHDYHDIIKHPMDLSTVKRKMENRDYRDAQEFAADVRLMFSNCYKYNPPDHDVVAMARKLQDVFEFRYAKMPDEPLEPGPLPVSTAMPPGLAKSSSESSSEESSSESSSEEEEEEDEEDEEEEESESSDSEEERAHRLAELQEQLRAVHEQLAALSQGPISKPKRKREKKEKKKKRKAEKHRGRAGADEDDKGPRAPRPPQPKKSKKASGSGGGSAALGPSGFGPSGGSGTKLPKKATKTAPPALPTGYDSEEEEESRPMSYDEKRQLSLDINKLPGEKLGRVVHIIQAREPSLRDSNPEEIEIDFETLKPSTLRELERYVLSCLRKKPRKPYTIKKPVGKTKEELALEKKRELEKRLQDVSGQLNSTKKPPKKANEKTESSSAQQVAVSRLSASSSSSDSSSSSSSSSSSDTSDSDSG
# T1 sequence (Q15059 whole entry): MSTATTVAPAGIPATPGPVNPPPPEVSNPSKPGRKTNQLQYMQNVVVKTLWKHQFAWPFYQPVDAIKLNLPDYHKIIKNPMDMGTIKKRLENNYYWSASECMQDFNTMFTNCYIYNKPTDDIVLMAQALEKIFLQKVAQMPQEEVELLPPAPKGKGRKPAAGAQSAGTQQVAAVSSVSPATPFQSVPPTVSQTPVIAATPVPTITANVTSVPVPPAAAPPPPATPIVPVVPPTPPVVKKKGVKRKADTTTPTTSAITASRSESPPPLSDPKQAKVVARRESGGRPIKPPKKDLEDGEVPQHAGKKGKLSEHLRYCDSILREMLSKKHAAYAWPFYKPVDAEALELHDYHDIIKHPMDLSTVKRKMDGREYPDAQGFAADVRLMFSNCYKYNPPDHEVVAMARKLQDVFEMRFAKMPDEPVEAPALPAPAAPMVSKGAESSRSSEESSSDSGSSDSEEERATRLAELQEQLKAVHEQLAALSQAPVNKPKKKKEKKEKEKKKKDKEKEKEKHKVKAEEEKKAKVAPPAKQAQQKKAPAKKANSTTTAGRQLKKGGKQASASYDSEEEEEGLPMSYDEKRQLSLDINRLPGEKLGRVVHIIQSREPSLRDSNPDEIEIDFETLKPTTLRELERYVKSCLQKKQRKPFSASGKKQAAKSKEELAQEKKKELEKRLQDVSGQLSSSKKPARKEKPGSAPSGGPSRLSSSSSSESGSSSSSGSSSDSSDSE
pEC50 (RKO WT cells; [1]),fold drop in BRD4 degradation potency (Dmax 50) when CRBN recruitment was outcompeted by pomalidomide (BRD4),pEC50 (BRD4),DC50 (BRD3),DC50 (BRD2),SMILES,pEC50 (RKO VHL KO cells; [2]),pEC50 (RKO CRBN/VHL dKO cells; [2]),pEC50 (RKO CRBN KO cells; [2]),also measured
6.31,3.6 fold,7.26,21 nM,156 nM,"Cc1ncsc1-c1ccc(CNC(=O)[C@@H]2C[C@@H](O)CN2C(=O)[C@@H](NC(=O)COCC(C)(COCCOCCNC(=O)C[C@@H]2N=C(c3ccc(Cl)cc3)c3c(sc(C)c3C)-n3c(C)nnc32)COCCOCCNc2cccc3c2C(=O)N(C2CCC(=O)NC2=O)C3=O)C(C)(C)C)cc1 (stereo partly drawn) [MN675 (2), (2S,4R)-1-((17S)-17-(tert-Butyl)-1-((S)-4-(4-chlorophenyl)-2,3,9-trimethyl-6H-thieno[3,2-f][1,2,4]triazolo[4,3-a][1,4]diazepin-6-yl)-11-((2-(2-((2-(2,6-dioxopiperidin-3-yl)-1,3-dioxoisoindolin-4-yl)amino)ethoxy)ethoxy)methyl)-11-methyl-2,15-dioxo-6,9,13-trioxa-3,16-diazaoctadecan-18-oyl)-4-hydroxy-N-(4-(4-methylthiazol-5-yl)benzyl)pyrrolidine-2-carboxamide]",6.06,5.69,6.22,"pEC50 (RKO WT cells; Homo sapiens, WT RKO, 316 pM to 10 μM, n = 3 (Table S4), read-out: EC50 RKO): 6.35; pEC50 (K562 cells; Homo sapiens): 6.49; pEC50 (KBM7 cells; Homo sapiens, KBM-7): 6.76"
,,,,,"Cc1sc2c(c1C)C(c1ccc(Cl)cc1)=N[C@@H](CC(=O)NCCCCCCCCNC(=O)COc1cccc3c1C(=O)N(C1CCC(=O)NC1=O)C3=O)c1nnc(C)n1-2 (some centres unmarked) [dBET6, reference compound]",,,,"pEC50 (RKO WT cells; 316 pM to 10 μM, 3 days, n = 6 (Figure 3C, Table S1), read-out: EC50 RKO WT): 6.55; pEC50 (RKO WT cells; 500 pM to 10 μM, 3 days (Figure 10, Table S6), read-out: EC50 RKO WT): 6.59; pEC50 (RKO WT cells; RKO WT, 316 pM to 10 μM, n = 6, combination: dBET6 and MZ1 each from 5 μM (Table S7), read-out: EC50 RKO): 6.97; pEC50 (RKO WT cells; WT RKO, 316 pM to 10 μM, n = 3 (Table S4), read-out: EC50 RKO): 6.57; pEC50 (RKO VHL KO cells; 316 pM to 10 μM, 3 days, n = 6 (Figure 3C, Table S1)): 6.63; pEC50 (RKO VHL KO cells; 500 pM to 10 μM, 3 days (Figure 10, Table S6)): 6.54; pEC50 (RKO CRBN/VHL dKO cells; both VHL and CRBN knocked out (Figure 3C)): < 5.00; pEC50 (RKO CRBN KO cells; Figure 10 experiment): < 5.00; pEC50 (K562 cells): 8.19; pEC50 (KBM7 cells): 8.43"
6.14,5.3 fold,7.43,23 nM,84 nM,"Cc1ncsc1-c1ccc(CNC(=O)[C@@H]2C[C@@H](O)CN2C(=O)[C@@H](NC(=O)COCC(C)(COCCOCCOCCNC(=O)C[C@@H]2N=C(c3ccc(Cl)cc3)c3c(sc(C)c3C)-n3c(C)nnc32)COCCOCCOCCNc2cccc3c2C(=O)N(C2CCC(=O)NC2=O)C3=O)C(C)(C)C)cc1 (stereo partly drawn) [MN666 (1), (2S,4R)-1-((20S)-20-(tert-Butyl)-1-((S)-4-(4-chlorophenyl)-2,3,9-trimethyl-6H-thieno[3,2-f][1,2,4]triazolo[4,3-a][1,4]diazepin-6-yl)-14-((2-(2-(2-((2-(2,6-dioxopiperidin-3-yl)-1,3-dioxoisoindolin-4-yl)amino)ethoxy)ethoxy)ethoxy)methyl)-14-methyl-2,18-dioxo-6,9,12,16-tetraoxa-3,19-diazahenicosan-21-oyl)-4-hydroxy-N-(4-(4-methylthiazol-5-yl)benzyl)pyrrolidine-2-carboxamide]",6.47,5.80,6.15,
